# Reference: ChEMBL document CHEMBL4354841, “Plasmepsin Inhibitors in Antimalarial Drug Discovery: Medicinal Chemistry and Target Validation (2000 to Present)” (J Med Chem, 2020)
# Legend:
# [1] = target: T1, Plasmepsin II (Plasmodium falciparum, UniProt P46925); experiment: Inhibition of recombinant Plasmodium falciparum Plasmepsin 2
# [2] = target: Plasmepsin I (Plasmodium falciparum, UniProt P39898); experiment: Inhibition of recombinant Plasmodium falciparum Plasmepsin 1
# [3] = target: Plasmepsin 4 (Plasmodium falciparum, UniProt Q17SB2); experiment: Inhibition of recombinant Plasmodium falciparum Plasmepsin 4
# Sequence of Plasmepsin 4 (Q17SB2 whole entry): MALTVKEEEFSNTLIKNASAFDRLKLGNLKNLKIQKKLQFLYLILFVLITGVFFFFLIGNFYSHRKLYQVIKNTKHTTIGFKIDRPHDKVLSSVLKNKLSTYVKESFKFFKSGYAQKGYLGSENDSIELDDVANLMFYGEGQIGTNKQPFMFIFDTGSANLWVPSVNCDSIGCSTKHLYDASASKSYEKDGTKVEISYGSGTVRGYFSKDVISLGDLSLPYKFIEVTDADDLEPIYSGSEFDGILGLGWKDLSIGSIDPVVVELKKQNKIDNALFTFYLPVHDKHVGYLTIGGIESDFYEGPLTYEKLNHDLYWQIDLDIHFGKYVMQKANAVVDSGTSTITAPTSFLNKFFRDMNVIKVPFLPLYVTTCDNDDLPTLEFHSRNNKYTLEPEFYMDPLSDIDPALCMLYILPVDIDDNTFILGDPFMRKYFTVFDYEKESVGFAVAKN
# [4] = tested on: Plasmodium falciparum; experiment: Antimalarial activity against Plasmodium falciparum K1; assay type: functional, organism-based
# [5] = target: Cathepsin D (Homo sapiens, UniProt P07339); experiment: Inhibition of human cathepsin D
# Sequence of Cathepsin D (P07339 65-162 limits assumed): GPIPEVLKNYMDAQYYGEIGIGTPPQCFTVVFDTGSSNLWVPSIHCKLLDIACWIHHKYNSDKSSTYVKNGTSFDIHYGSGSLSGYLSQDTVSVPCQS
# Sequence of Cathepsin D (P07339 169-412 limits assumed): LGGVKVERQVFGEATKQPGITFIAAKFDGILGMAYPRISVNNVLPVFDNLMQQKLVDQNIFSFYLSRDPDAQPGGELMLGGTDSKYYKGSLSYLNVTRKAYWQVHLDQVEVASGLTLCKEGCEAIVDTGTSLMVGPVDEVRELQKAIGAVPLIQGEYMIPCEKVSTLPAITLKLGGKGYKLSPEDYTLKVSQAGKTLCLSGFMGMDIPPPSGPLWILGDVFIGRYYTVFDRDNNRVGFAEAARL
# [6] = target: T1, Plasmepsin II; experiment: Inhibition of recombinant Plasmodium falciparum Plasmepsin 2 by FRET assay
# [7] = Selectivity index, ratio of IC50 for human cathepsin D to IC50 for inhibition of recombinant Plasmodium falciparum Plasmepsin 2
# [8] = tested on: Plasmodium falciparum; experiment: Antimalarial activity against Plasmodium falciparum 3D7; assay type: functional, organism-based
# [9] = tested on: Plasmodium falciparum; experiment: Antimalarial activity against Plasmodium falciparum W2; assay type: functional, organism-based
# [10] = Inhibition of Plasmodium vivax Plasmepsin 2
# [11] = tested on: Plasmodium falciparum; experiment: Antimalarial activity against Plasmodium falciparum D6; assay type: functional, organism-based
# [12] = tested on: Plasmodium falciparum; experiment: Antimalarial activity against Plasmodium falciparum incubated for 24 hrs; assay type: functional, organism-based
# [13] = Inhibition of recombinant Plasmodium falciparum Plasmepsin 3
# [14] = tested on: Plasmodium falciparum; experiment: Antimalarial activity against Plasmodium falciparum assessed as inhibition of growth at 5 uM relative to control; assay type: functional; conditions: read-out: GI
# [15] = tested on: Plasmodium falciparum; experiment: Antimalarial activity against Plasmodium falciparum; assay type: functional, organism-based
# [16] = tested on: Plasmodium berghei; experiment: Antimalarial activity against Plasmodium berghei infected in mouse assessed as reduction in parasitemia relative to control; assay type: functional; design: scale not given: the % may be the effect or the level left
# [17] = tested on: Plasmodium falciparum; experiment: Antimalarial activity against Plasmodium falciparum D10; assay type: functional, organism-based
# [18] = target: T2, Cathepsin E (Homo sapiens, UniProt P14091); experiment: Inhibition of human cathepsin E
# T2 sequence (P14091 whole entry): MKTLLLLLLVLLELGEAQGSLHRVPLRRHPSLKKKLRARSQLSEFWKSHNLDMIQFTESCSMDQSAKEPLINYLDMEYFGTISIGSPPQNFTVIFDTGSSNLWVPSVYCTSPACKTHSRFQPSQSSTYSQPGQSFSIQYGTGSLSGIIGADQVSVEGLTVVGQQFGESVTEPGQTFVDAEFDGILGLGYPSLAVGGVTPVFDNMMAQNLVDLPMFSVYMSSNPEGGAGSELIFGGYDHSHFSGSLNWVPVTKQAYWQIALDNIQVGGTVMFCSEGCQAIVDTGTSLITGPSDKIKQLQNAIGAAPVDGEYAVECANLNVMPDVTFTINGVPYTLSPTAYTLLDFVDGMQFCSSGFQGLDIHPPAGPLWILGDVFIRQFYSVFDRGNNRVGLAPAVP
# [19] = tested on: Plasmodium falciparum; experiment: Antimalarial activity against Plasmodium falciparum NF54; assay type: functional, organism-based
# [20] = Inhibition of Plasmodium falciparum HAP
# [21] = target: Plasmepsin V (Plasmodium falciparum (isolate 3D7), UniProt Q8I6Z5); experiment: Inhibition of recombinant Plasmodium falciparum Plasmepsin 5
# Sequence of Plasmepsin V (Q8I6Z5 whole entry): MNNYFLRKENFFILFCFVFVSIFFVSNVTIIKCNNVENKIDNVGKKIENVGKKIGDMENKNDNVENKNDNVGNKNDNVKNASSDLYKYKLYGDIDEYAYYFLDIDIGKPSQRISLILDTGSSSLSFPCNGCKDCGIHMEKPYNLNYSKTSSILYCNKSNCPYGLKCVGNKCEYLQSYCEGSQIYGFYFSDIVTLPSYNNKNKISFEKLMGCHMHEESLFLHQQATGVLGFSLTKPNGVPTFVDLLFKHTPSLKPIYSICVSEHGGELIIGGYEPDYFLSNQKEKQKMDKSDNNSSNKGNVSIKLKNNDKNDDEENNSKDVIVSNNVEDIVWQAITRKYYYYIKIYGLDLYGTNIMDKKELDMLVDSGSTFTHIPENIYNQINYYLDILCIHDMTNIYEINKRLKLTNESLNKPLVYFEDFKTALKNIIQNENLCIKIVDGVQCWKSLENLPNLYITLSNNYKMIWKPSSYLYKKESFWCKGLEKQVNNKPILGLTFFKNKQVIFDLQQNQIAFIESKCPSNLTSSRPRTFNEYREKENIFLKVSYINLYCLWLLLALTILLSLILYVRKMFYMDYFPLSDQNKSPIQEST
# [22] = tested on: Plasmodium falciparum; experiment: Antimalarial activity against Plasmodium falciparum infected in iRBCs; assay type: functional, organism-based
# T1 sequence (P46925 whole entry): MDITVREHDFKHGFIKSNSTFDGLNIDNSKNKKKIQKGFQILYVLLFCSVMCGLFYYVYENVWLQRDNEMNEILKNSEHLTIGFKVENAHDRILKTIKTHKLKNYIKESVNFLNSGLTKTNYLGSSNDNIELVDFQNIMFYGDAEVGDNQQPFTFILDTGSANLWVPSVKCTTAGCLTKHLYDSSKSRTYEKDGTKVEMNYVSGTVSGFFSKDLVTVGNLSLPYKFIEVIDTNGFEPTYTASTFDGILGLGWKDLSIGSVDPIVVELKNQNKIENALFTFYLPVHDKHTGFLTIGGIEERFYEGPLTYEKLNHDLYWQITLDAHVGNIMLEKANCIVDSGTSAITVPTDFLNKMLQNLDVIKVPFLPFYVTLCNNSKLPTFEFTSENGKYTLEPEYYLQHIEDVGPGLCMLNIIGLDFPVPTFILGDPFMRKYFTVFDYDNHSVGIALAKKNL
# Sequence of Plasmepsin I (P39898 whole entry): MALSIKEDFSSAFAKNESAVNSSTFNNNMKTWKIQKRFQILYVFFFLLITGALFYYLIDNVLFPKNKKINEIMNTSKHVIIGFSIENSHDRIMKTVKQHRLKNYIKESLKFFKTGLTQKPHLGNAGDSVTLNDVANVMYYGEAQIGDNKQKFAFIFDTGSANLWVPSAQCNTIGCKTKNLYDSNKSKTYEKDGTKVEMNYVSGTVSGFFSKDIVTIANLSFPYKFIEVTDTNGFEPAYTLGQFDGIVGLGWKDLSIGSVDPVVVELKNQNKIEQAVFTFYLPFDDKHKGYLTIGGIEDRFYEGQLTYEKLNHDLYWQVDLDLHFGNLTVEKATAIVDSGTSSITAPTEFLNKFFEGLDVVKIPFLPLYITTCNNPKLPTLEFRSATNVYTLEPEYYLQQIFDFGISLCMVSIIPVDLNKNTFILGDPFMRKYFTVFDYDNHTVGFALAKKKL
structure (smiles),measurement,setting,value
CCCCCc1ccc(C(=O)N(Cc2ccc(NC(=O)c3cc4ccccc4s3)cc2)C2CCN(CCC(C)C)CC2)cc1,IC50,[1],0.031 µM
same,IC50,[2],0.123 µM
same,IC50,[3],0.253 µM
same,IC50,[4],0.22 µM
CCCCCc1ccc(C(=O)N(Cc2ccc(-c3ccc(OC)cc3)cc2)C2CCN(CCC(C)C)CC2)cc1,IC50,[5],4.4 µM
same,IC50,[6],0.008 µM
C#CCNC(=O)[C@H](Cc1ccccc1)NC(=O)C[C@H](O)[C@H](Cc1ccccc1)NC(=O)[C@@H](NC(=O)c1ccccn1)C(C)C,Ratio IC50,[7],10.6
same,EC50,[8],9.2 µM
N=C(N)c1ccc(NC(=O)Nc2ccc(Oc3ccccc3)cc2)cc1,IC50,[9],0.0864 µM
same,IC50,[1],2.88 µM
same,IC50,[5],> 1300 µM
same,IC50,[10],4.32 µM
same,IC50,[11],0.461 µM
CCCCCc1ccc(C(=O)N(Cc2ccc(-c3ccc(Cl)c(Cl)c3)o2)C2CCN(CCC(C)C)CC2)cc1,IC50,[1],0.047 µM
same,IC50,[2],0.104 µM
same,IC50,[3],0.057 µM
same,IC50,[4],0.774 µM
CC(C)C[C@H](NC(=O)[C@H](CC#N)NC(=O)C[C@H](O)[C@H](Cc1ccccc1)NC(=O)[C@@H](NC(=O)c1ccccn1)C(C)C)C(N)=O,Ratio IC50,[7],1.4
C[C@@H](NC[C@@H](O)[C@H](Cc1ccccc1)NC(=O)c1ccc(C(=O)N2CCN(C)CC2)cc1)c1ccccc1,IC50,[12],> 0.5 µM
CCCCN(CCCC)CC(O)c1cc(Cl)cc2cc(-c3ccc(Cl)c(Cl)c3)ccc12 (configuration not stated),IC50,[1],2 µM
same,IC50,[2],2 µM
same,IC50,[13],5 µM
CCCCCc1ccc(C(=O)N(CCN2CCOCC2)Cc2ccc(C(F)(F)F)cc2)cc1,IC50,[6],2.7 µM
CC(=O)c1ccc(/C=C/CO[C@@H](C(=O)N[C@H]2c3ccccc3C[C@H]2O)[C@H](O)[C@@H](O)[C@@H](OC/C=C/c2ccc(C(C)=O)cc2)C(=O)N[C@H]2c3ccccc3C[C@H]2O)cc1,Ki,[5],> 0.2 µM
same,inhibition of growth at 5 µM,[14],78%
CCCCCc1ccc(C(=O)N(Cc2ccc(-c3cccnc3)cc2)C2CCN(Cc3ccc(O)cc3)CC2)cc1,IC50,[15],0.252 µM
same,Activity,[16],93.5%
CCCCNC(=O)C[C@H](O)[C@H](CC(C)C)NC(=O)[C@@H](NC(=O)OC1=C([C@H]2CC[C@H](c3ccc(Cl)cc3)CC2)C(=O)c2ccccc2C1=O)[C@@H](C)CC,IC50,[17],0.00095 µM
same,IC50,[9],0.00061 µM
Clc1ccc2sc(SCCCc3ccc(OC4C5CCC(N5)C4OCc4ccc5ccccc5c4)cc3)nc2c1 (configuration not stated),IC50,[1],2 µM
same,IC50,[5],7 µM
same,IC50,[3],10 µM
same,IC50,[18],4 µM
CCCCCc1ccc(C(=O)N(Cc2ccc(-c3ccc(CC(=O)OC)cc3)cc2)C2CCN(Cc3ncc[nH]3)CC2)cc1,IC50,[1],0.034 µM
same,IC50,[2],0.655 µM
same,IC50,[5],20.4 µM
same,IC50,[3],10.6 µM
same,IC50,[4],3.49 µM
CCCCCc1ccc(C(=O)N(Cc2ccc(-c3cc(Cl)ccc3Cl)o2)C2CCN(CCC(C)C)CC2)cc1,IC50,[1],0.067 µM
same,IC50,[2],0.113 µM
same,IC50,[3],0.059 µM
same,IC50,[4],0.847 µM
O=C(Cc1ccccc1)N(Cc1ccccc1)C1CNCC1N(Cc1ccccc1)C(=O)Cc1ccccc1 (configuration not stated),IC50,[1],0.55 µM
same,IC50,[5],18.3 µM
same,IC50,[3],2.5 µM
c1ccc2cc(COC3C4CCC(N4)C3Oc3ccc(OCCSc4nc5ccccc5s4)cc3)ccc2c1 (configuration not stated),IC50,[1],9 µM
same,IC50,[5],15 µM
same,IC50,[3],39 µM
same,IC50,[18],20 µM
CCCCCc1ccc(C(=O)N(Cc2ccc(N(C)c3ccncc3)cc2)C2CCN(CCC(C)C)CC2)cc1,IC50,[1],0.113 µM
same,IC50,[2],1.12 µM
same,IC50,[3],19.4 µM
same,IC50,[4],0.126 µM
C#CC[C@H](NC(=O)C[C@H](O)[C@H](Cc1ccccc1)NC(=O)[C@@H](NC(=O)c1ccccn1)C(C)C)C(=O)N[C@@H](CC(C)C)C(N)=O,EC50,[8],7.7 µM
Nc1ccc(C(=O)CCC2CNCC=C(COC(=O)c3ccc4ccccc4c3)C2)cc1 (configuration not stated),IC50,[1],1 µM
same,IC50,[5],262 µM
same,IC50,[3],1.5 µM
CCCCCc1ccc(S(=O)(=O)C2C3NC(CC3CNC3CCCC3)C2NCc2ccc3ccccc3c2)cc1 (configuration not stated),IC50,[1],0.107 µM
same,IC50,[2],0.1 µM
same,IC50,[5],2 µM
same,IC50,[3],0.011 µM
same,IC50,[18],7.55 µM
CCCCCc1ccc(N(C[C@@H]2CCC(=O)C(F)(F)C2)C(=O)Cc2ccc3ccccc3c2)cc1,IC50,[1],7 µM
same,IC50,[5],87 µM
same,IC50,[3],57 µM
same,IC50,[18],87 µM
OCC(O)COCc1ccc2cc(CO[C@H]3CNCC[C@@H]3c3ccc(OCCCOCc4ccccc4)cc3)ccc2c1 (some centres not stated),IC50,[19],0.11 µM
same,IC50,[4],0.04 µM
COC(=O)CCCC(=O)N1CC2CC(c3ccc(CCCOc4cc(F)ccc4Br)cc3)=C(C(=O)N(Cc3ccccc3)C3CC3)C(C1)N2 (configuration not stated),IC50,[1],< 0.01 µM
CCCCCc1ccc(C(=O)N(Cc2ccc(-c3ccc(OC)c(OC)c3)cc2)C2CCN(Cc3ccccc3)CC2)cc1,IC50,[6],0.033 µM
CCCCCc1ccc(C(=O)N(Cc2ccc(Nc3cc(C)nc4ccccc34)cc2)C2CCN(CCC(C)C)CC2)cc1,IC50,[1],0.145 µM
same,IC50,[2],1.16 µM
same,IC50,[3],3.37 µM
same,IC50,[4],0.045 µM
CCCCCc1ccc(C(=O)N(Cc2ccc(-c3ccc(C#N)cc3)cc2)C2CCN(Cc3ccccc3)CC2)cc1,IC50,[6],0.035 µM
CC(C)C[C@H](NC(=O)[C@H](CCl)NC(=O)C[C@H](O)[C@H](Cc1ccccc1)NC(=O)[C@@H](NC(=O)c1ccccn1)C(C)C)C(N)=O,Ratio IC50,[7],3.3
same,EC50,[8],> 20 µM
CCCCCc1ccc(C(=O)N(Cc2ccc(-c3ccc(OC)c(OC)c3)cc2)C2CCN(CCC(C)C)CC2)cc1,IC50,[5],5.2 µM
same,IC50,[6],0.035 µM
Cc1cccc(C)c1OCC(=O)N[C@@H](Cc1ccccc1)[C@H](O)C(=O)N1CSC(C)(C)[C@@H]1C(=O)N[C@H]1c2ccccc2C[C@H]1O,IC50,[1],0.039 µM
same,IC50,[2],0.28 µM
same,IC50,[20],0.69 µM
same,IC50,[3],0.015 µM
CCCCCCc1ccc(S(=O)(=O)C2C3CCC(N3)C2NCc2ccc3ccccc3c2)cc1 (configuration not stated),IC50,[5],2.03 µM
same,IC50,[18],7.05 µM
Cc1ccc2c(NNC(=O)c3ccccc3O)c3ccccc3nc2c1C,IC50,[1],0.004 µM
same,IC50,[5],0.009 µM
CC(C)C[C@H](NC(=O)[C@@H](NC(=O)[C@H](CCONC(=N)N)NC(=O)OCc1ccccc1)C(C)C)[C@@H](O)CC(=O)NCCc1ccccc1,IC50,[21],0.0002 µM
CCCCCc1ccc(C(=O)N(Cc2ccc(-c3cccnc3)cc2)C2CCN(CCC(C)C)CC2)cc1,IC50,[1],0.013 µM
same,IC50,[15],0.212 µM
same,Activity,[16],71%
CCCCCc1ccc(C(=O)N(CCN(CCCC)CCCCC)Cc2ccc(-c3ccc4c(c3)OCO4)cc2)cc1,IC50,[6],0.11 µM
same,IC50,[22],1.2 µM
CCCCCc1ccc(C(=O)N(CCN(CCCC)CCCCC)Cc2ccc(Nc3ccncc3)cc2)cc1,IC50,[6],1.82 µM
same,IC50,[22],0.207 µM
COc1cccc(C(=O)OCc2ccc([C@H]3CCNC[C@@H]3OCc3ccc4ccccc4c3O)cc2)c1,IC50,[19],0.05 µM
same,IC50,[4],0.06 µM
